Here are results for 2 compounds from US4595689A, “4-(8-bromodibenz[b,f]oxepin-10-yl)-1,2,3,6-tetrahydro-1-methylpyridine and 4-(2-bromodibenzo[a,d]cyclophetatriene-11-yl)-1,2,3,6-tetrahydro-1-methy lpyridine for dermal inflammation” (Hoffmann-LaRoche Inc., priority 1984, dated 1986).

The assay concerns cantharidin-induced inflammation of rat ear. Briefly: Cantharidin induced inflammation in the rat (topical activity, ear skin punch weight). The format is in vivo, rat (Charles River CD, 21-day-old male). Particulars: topical dose 100 μg, with 400 μg cantharidin in 0.1 ml vehicle on rat ears; 72 hours. As for the experimental part: CANTHARIDIN INDUCED INFLAMMATION IN THE RAT
A solvent vehicle was prepared which was used to apply cantharidin or cantharidin and test compound to rats. The solvent vehicle was a solution of 1 part ethanol, 1.5 parts collodion, 2 parts acetone and 3 parts diethylether. When it was desired to apply cantharidin to rats, cantharidin was added to the solvent vehicle in such an amount that there were 400 μg of cantharidin in 0.1 ml of solvent vehicle. When it was desired to apply cantharidin and test compound to rats, cantharidin and test compound were added to the solvent vehicle in such amounts that there were both 400 μg of cantharidin and 100 μg of test compound in 0.1 ml of solvent vehicle. Cantharidin or cantharidin plus the test compound at a dose of 100 μg were applied topically to the outer surface of the ears of Charles River CD 21-day-old male rats in a volume of 0.1 ml of solvent vehicle described above. Separate groups of rats were treated with solvent vehicle alone, cantharidin alone, and cantharidin plus test compound. Autopsy was carried out 72 hours after cantharidin administration. Uniform punches were obtained through the site of application and weighed. Weight changes reflect effects on both the fluid and tissue components of the inflammatory process. […]

In the case of `CN1CC=C(C2=Cc3ccccc3Cc3ccc(Br)cc32)CC1` [4-(2-bromodibenzo[a,d]cycloheptatriene-11-yl)-1,2,3,6-tetrahydro-1-methylpyridine], the “% Inhibition of Inflammation” value was 37%.

As to `CN1CC=C(C2=Cc3ccccc3Oc3ccc(Br)cc32)CC1` [4-(8-bromodibenz[b,f]oxepin-10-yl)-1,2,3,6-tetrahydro-1-methylpyridine], the “% Inhibition of Inflammation” value is listed as 36%.
